This experiment deals with T1, recombinant human NAPRT (nicotinic acid phosphoribosyltransferase) (Homo sapiens, UniProt Q6XQN6).
T1 construct: dimer
T1 sequence (Q6XQN6 1-538): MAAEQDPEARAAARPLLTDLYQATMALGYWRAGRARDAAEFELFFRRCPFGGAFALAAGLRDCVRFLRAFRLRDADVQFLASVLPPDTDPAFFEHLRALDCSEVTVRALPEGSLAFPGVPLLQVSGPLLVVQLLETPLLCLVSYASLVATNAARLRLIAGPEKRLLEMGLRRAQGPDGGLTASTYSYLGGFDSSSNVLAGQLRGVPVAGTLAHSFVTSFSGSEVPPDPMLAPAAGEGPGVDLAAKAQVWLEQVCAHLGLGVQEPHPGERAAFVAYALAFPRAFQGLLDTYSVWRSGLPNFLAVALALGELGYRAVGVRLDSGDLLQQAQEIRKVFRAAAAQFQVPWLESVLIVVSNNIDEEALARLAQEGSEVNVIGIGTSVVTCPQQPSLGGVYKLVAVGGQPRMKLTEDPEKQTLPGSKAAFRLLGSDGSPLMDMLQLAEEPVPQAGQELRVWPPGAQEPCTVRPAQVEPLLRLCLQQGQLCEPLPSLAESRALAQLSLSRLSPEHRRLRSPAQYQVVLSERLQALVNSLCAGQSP
The experiment is described as follows: HPLC of NAMN formation, Michaelis-Menten fit. Format: biochemical. The text has this: HPLC of NAMN formation, Michaelis-Menten fit on recombinant human NAPRT (nicotinic acid phosphoribosyltransferase)
In the case of `O=C(N[C@@H](C(=O)c1ccccc1)n1cnccc1=O)c1ccccc1` [compound 1], the Ki – broadly, a dissociation constant, usually derived from enzyme kinetics or from competition with a known ligand – worked out at 2280 µM.
The value for `O=C(O)c1cnccc1O` [compound 8] was 308 µM.
The value for `O=C(O)c1cnsn1` [compound 19] was 295 µM.

Source of the values: article PMC9318686, “Identification of NAPRT Inhibitors with Anti-Cancer Properties by In Silico Drug Discovery” (Pharmaceuticals, 2022).
